Measured values from US6294580A, “Substituted 4-hydroxy-phenylalcanoic acid derivatives with agonist activity to PPAR-gamma” (Glaxo Wellcome Inc., priority 1996, dated 2001).
Counter-ions that a name gives are not always drawn. Like-named read-outs stand apart in the source and are kept apart here.

What was measured:
PPARg = assay: PPARgamma Transient Cotransfection Assay; type: cell-based
db/db mice = assay: In vivo Evaluation in db/db mice (plasma glucose); set-up: species or system mouse; conditions: 5 mg/kg b.i.d. oral gavage, fourteen days
Procedure: In vivo Evaluation: Experiments were performed on db/db mice (n=40-48), approximately 60 day old, divided into either vehicle or treatment groups. From each group 8-12 animals were placed in Nalgene metabolic cages, 2 per cage. The remaining animals are housed in standard rack cages; 3-4 per cage. Test compounds were dissolved in an appropriate vehicle. Animals were administered either the vehicle or the compound (dose=5 mg/kg) delivered at 5 ml/kg, b.i.d., via oral gavage for fourteen days. Daily measurements were made of mice housed in metabolic cages to determine consumption of food and water, urine output and urinary glucose excretion and changes in body weight. Animals housed in rack cages were weighed approximately every four days to monitor changes in body weight. An equal number of animals from each group were sampled on days 0, 4, 7 and 14. Mice were anesthetized with isolflurane, blood samples were obtained by cardiac puncture and analyzed to determine plasma levels of glucose, insulin, total cholesterol, triglycerides and non-esterified free fatty acids (NEFA's).

hPPARgamma = molecular target: T1, hPPARgamma (Homo sapiens, UniProt P37231); assay: hPPARgamma Ligand Binding Assay; conditions: competition with [3H]-BRL 49,653, room temperature 2 hrs
T1 construct: 10x-histidine tag (N); made in house; host or cells: E. coli
T1 sequence (P37231 195-475 isoform P37231-2): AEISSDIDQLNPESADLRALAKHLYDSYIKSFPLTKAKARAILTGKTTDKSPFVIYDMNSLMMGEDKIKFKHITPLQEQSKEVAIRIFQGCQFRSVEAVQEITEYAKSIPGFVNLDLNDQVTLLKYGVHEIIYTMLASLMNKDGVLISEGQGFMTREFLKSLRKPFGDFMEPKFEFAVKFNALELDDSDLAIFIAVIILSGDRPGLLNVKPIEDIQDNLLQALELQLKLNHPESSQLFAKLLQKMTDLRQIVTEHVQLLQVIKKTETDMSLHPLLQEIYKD
Procedure: 2. hPPARgamma Ligand Binding Assay: The PPAR-gamma ligand binding domain (amino acids 195-475) was expressed with an N-terminal 10×-histidinetag in E. coli cells. The cells were lysed and receptor was purified by means of the epitope tag. The stock solution of protein was diluted to 200 nM in assay buffer (50 mM Tris, 50 mM KCl, pH 8 20 mM CHAPS, 2 mM EDTA 10 mM DTT (Fresh)) just before use.
Test compounds were prepared as 6 mM stock solutions in DMSO. […] The right-most column of wells was used for controls. […] Plates were incubated at room temperature for 2 hrs, and then cooled on ice for 30 minutes. 50 uL samples from each well of a single test plate were simultaneously loaded onto an equilibrated AGTC 96 well gel filtration block (Advanced Genetics Technology Corp.) using a Zymak Rapidplate automated pipettor. The block was placed on top of a clean microtiter plate and centrifuged @1,100×g for 4 min. 200 uL of scintillation fluid was added to each well, the plates were sealed and allowed to equilibrate for at least 4 hours before counting in a Wallac 1250 Microbeta counter.
Ki's were determined from a nonlinear least squares fit of the data to a simple competitive binding model.

pre-adipocyte cell lines = conditions: treatment of pre-adipocyte cell lines; cited from earlier work
human patients = conditions: patients with impaired glucose tolerance, NIDDM; cited from earlier work
[1] = CAT reporter, read-out: PPARg EC50
[2] = read-out: PPARg EC50, CAT reporter

Compound	EC50 (PPARg; [1])	Ki (hPPARgamma; PPARg Ki)	also measured
CN(CCOc1ccc(CC(Nc2ccccc2C(=O)c2ccccc2)C(=O)O)cc1)c1nc2ccccc2o1 (centres unmarked) [Example 16, 3-{4-[2-(benzoxazol-2-yl-methyl-amino)-ethoxy]-phenyl}-2-(2-benzoyl-phenylamino)-propionic acid]	1 nM	20 nM	% lowering of plasma glucose (db/db mice): 63%
CN(CCOc1ccc(C[C@H](Nc2ccccc2C(=O)c2ccccc2)C(=O)O)cc1)c1ccccn1 [Example 12, 2(S)-(2-benzoyl-phenylamino)-3-{4-[2-(methyl-pyridin-2-yl-amino)-ethoxy]-phenyl}-propionic acid]			EC50 (PPARg; [2]): 5 nM; % lowering of plasma glucose (db/db mice): 58%
Cc1oc(-c2ccccc2)nc1CCOc1ccc(C[C@H](Nc2ccccc2C(=O)c2ccccc2)C(=O)O)cc1 [Example 29, 2(S)-(2-Benzoyl-phenylamino)-3-{4-[2-(5-methyl-2-phenyl-oxazol-4-yl)ethoxy]-phenyl}-propionic acid]			EC50 (PPARg; [2]): 0.2 nM; % lowering of plasma glucose (db/db mice): 70%
CCc1ccc(CCOc2ccc(CC3SC(=O)NC3=O)cc2)nc1 (centres unmarked) [pioglitazone]			expression of adipocyte-specific genes aP2 and adipsin and glucose transporter proteins GLUT-1 and GLUT-4 (pre-adipocyte cell lines): increased expression of the adipocyte-specific genes aP2 and adipsin as well as the glucose transporter proteins GLUT-1 and GLUT-4
Cc1c(C)c2c(c(C)c1O)CCC(C)(COc1ccc(CC3SC(=O)NC3=O)cc1)O2 (centres unmarked) [troglitazone]			effects in human patients (insulin sensitivity, lipid and insulin levels) (human patients): these same beneficial effects in human patients
CN(CCOc1ccc(CC(Nc2ccccc2C(=O)c2cccc(O)c2)C(=O)O)cc1)c1nc2ccccc2o1 (centres unmarked) [Example 92, 3-{4-[2-(benzoxazol-2-yl-methyl-amino)-ethoxy]-phenyl}-2-[2-(3-hydroxy-benzoyl)-phenylamino]-propionic acid]	400 nM	20 nM	
CN(CCOc1ccc(CC(Nc2ccccc2C(=O)C2CCCC2)C(=O)O)cc1)c1nc2ccccc2o1 (centres unmarked) [Example 48, 3-{4-[2-(Benzoxazol-2-yl-methyl-amino)-ethoxy]-phenyl}-2-(2-cyclopentanecarbonyl-phenylamino)-propionic acid]	20 nM	115 nM	
O=C(c1ccccc1)c1ccccc1N[C@@H](Cc1ccc(OCCSc2ccc(Cl)cc2)cc1)C(=O)O [Example 115, 2-(2-Benzoyl-phenylamino)-3-{4-2[-(4-chloro-phenylsulfanyl)ethoxy]-phenyl}-propionic acid]	165 nM	200 nM	
CC(=CC(=O)c1ccccc1)NC(Cc1ccc(OCCN(C)c2ccccn2)cc1)C(=O)O (centres unmarked) [Example 14, 2-(1-Methyl-oxo-3-phenyl-propenylamino)-3{4-[2-(methyl-pyridin-2-yl-amino)-ethoxy]-phenyl}-propionic acid dicyclohexylamine salt]	1 nM	80 nM	PPARg Fold. Act. (PPARg; CAT reporter): 18
COC(=O)Nc1cccc(C(=O)c2ccccc2NC(Cc2ccc(OCCc3nc(-c4ccccc4)oc3C)cc2)C(=O)O)c1 (centres unmarked) [Example 96, 2-[2-(3-methoxycarbonylamino-benzoyl)-phenylamino]-3-{4-[2-(5-methyl-2-phenyl-oxazol-4-yl)-ethoxy]-phenyl}-propionic acid]	300 nM	280 nM	
COC(=O)c1ccccc1N[C@@H](Cc1ccc(OCCc2ccc(N(C)C)cc2)cc1)C(=O)O [Example 104, 2(S)-(1-carboxy-2-{4-[2-(4-dimethylamino-phenyl)-ethoxy]-phenyl}-ethylamino)-benzoic acid methyl ester]	900 nM	3000 nM	
CN(CCOc1ccc(CC(Nc2ccccc2C(=O)c2ccc(-c3ccccc3)cc2)C(=O)O)cc1)c1nc2ccccc2o1 (centres unmarked) [Example 109, 3-{4-[2-(Benzoxazol-2-yl-methylamino)-ethoxy]-phenyl}-2-(2-(4-biphenylcarbonyl)-phenylamino)-propionic acid]	200 nM	700 nM	
CN(CCOc1ccc(CC(Nc2ccccc2C(=O)C2CCCCC2)C(=O)O)cc1)c1nc2ccccc2o1 (centres unmarked) [Example 24, 3-{4-[2-(Benzoxazol-2-yl-methyl-amino)-ethoxy]-phenyl}-2-(2-cyclohexanecarbonyl-phenylamino)-propionic acid]	1 nM	30 nM	
O=C(c1ccccc1)c1ccccc1NC(Cc1ccc(OC2CCN(c3nc4ccccc4o3)C2)cc1)C(=O)O (centres unmarked) [Example 55, 3-[4-(1-Benzoxazol-2-yl-pyrrolidin-3-yloxy)-phenyl]-2-(2-benzoyl-phenylamino)-propionic acid]	460 nM	1400 nM	
Cc1oc(-c2ccccc2)nc1CCOc1ccc(CC(Nc2ccccc2C(=O)c2cccc(NS(C)(=O)=O)c2)C(=O)O)cc1 (centres unmarked) [Example 95, 2-[2-(3-methanesulfonylamino-benzoyl)-phenylamino]-3-{4-[2-(5-methyl-2-phenyl-oxazol-4-yl)-ethoxy]-phenyl}-propionic acid]	700 nM	380 nM	
Cc1cccc(C)c1C(=O)c1ccccc1NC(Cc1ccc(OCCN(C)c2nc3ccccc3o2)cc1)C(=O)O (centres unmarked) [Example 83]	165 nM	350 nM	
CN(CCOc1ccc(CC(Nc2ccccc2C(=O)c2ccccc2)C(=O)O)cc1)c1nc2ccccc2o1 (centres unmarked) [Example 15, 3-{4-[2-(benzoxazol-2-yl-methyl-amino)-ethoxy]-phenyl}-2-(2-benzoyl-phenylamino)-propionic acid]	1 nM	40 nM	
CN(CCOc1ccc(CC(Nc2sccc2C(=O)c2ccccc2)C(=O)O)cc1)c1nc2ccccc2o1 (centres unmarked) [Example 52, 3-{4-[2-(Benzoxazol-2-yl-methyl-amino)-ethoxy]-phenyl}-2-(3-benzoyl-thiophene-2-ylamino)-propionic acid]	80 nM	100 nM	
CN(CCOc1ccc(CC(Nc2ccccc2C(=O)c2cccc(C(F)(F)F)c2)C(=O)O)cc1)c1nc2ccccc2o1 (centres unmarked) [Example 76]	10 nM	110 nM	
O=C(c1ccccc1)c1ccccc1NC(Cc1ccc(OC2CCN(c3nc4ccccc4o3)C2)cc1)C(=O)O (centres unmarked) [Example 21, 3-[4-(1-Benzoxazol-2-yl-pyrrolidin-3-yloxy)-phenyl]-2-(2-benzoyl-phenylamino)-propionic acid]	150 nM	530 nM	
Cc1oc(-c2ccccc2)nc1CCOc1ccc(CC(Nc2ccccc2C(=O)c2cccc(O)c2)C(=O)O)cc1 (centres unmarked) [Example 97, 2-[2-(3-hydroxy-benzoyl)-phenylamino]-3-{4-[2-(5-methyl-2-phenyl-oxazol-4-yl)-ethoxy]-phenyl}-propionic acid]	20 nM	5 nM	
Cc1oc(-c2ccccc2)nc1CCOc1ccc(CC(Nc2ccccc2C(=O)c2cccc(CN(C)C)c2)C(=O)O)cc1 (centres unmarked) [Example 87, 2-[2-(3-dimethylaminomethyl-benzoyl)-phenylamino]-3-{4-[2-(5-methyl-2-phenyl-oxazol-4-yl)-ethoxy]-phenyl}-propionic acid hydrochloride]	465 nM		Ki (hPPARgamma; read-out: PPARg Ki): 1160 nM
Cc1ccccc1C(=O)c1ccccc1NC(Cc1ccc(OCCN(C)c2nc3ccccc3o2)cc1)C(=O)O (centres unmarked) [Example 112, 3-{4-[2-(Benzoxazol-2-yl-methylamino)-ethoxy]-phenyl}-2-(2-(2-methyl-benzoyl)-phenylamino)-propionic acid]	10 nM	130 nM	
O=C(c1ccccc1)c1ccccc1NC(Cc1ccc(OCc2ccccc2)cc1)C(=O)O (centres unmarked) [Example 4, 2-(2-benzoylphenylamino)-3-(4-benzyloxyphenyl) propanoic acid]	3000 nM	1000 nM	PPARg Fold. Act. (PPARg; CAT reporter): 20
Cc1oc(-c2ccccc2)nc1CCOc1ccc(CC(Nc2ccccc2C(=O)c2ccc(CN)cc2)C(=O)O)cc1 (centres unmarked) [Example 82, 2-[2-(4-aminomethyl-benzoyl)-phenylamino]-3-{4-[2-(6-methyl-2-phenyl-oxazol-4-yl)-ethoxy]-phenyl}-propionic acid hydrochloride]	25 nM	65 nM	
O=C(c1ccccc1)c1ccccc1NC(Cc1ccc(OCCc2cccnc2)cc1)C(=O)O (centres unmarked) [Example 123, 2-(2-Benzoyl-phenylamino)-3-[4-(2-pyridin-3-yl-ethoxy]-phenyl]-propionic acid]	620 nM	280 nM	
CCCNS(=O)(=O)c1ccc(C(=O)c2ccccc2NC(Cc2ccc(OCCc3nc(-c4ccccc4)oc3C)cc2)C(=O)O)cc1 (centres unmarked) [Example 93, 3-{4-[2-(5-methyl-2-phenyl-oxazol-4-yl)-ethoxy]-phenyl}-2-[2-(4-propylsulfamoyl-benzoyl)-phenylamino]-propionic acid]	55 nM	100 nM	
CN(CCOc1ccc(CC(Nc2ccccc2C(=O)c2ccccc2C(F)(F)F)C(=O)O)cc1)c1nc2ccccc2o1 (centres unmarked) [Example 77]	65 nM	155 nM	
2-(2-Benzoyl-phenylamino)-3-(4-{2-[3-(5-methyl-pyridin-2-yl)-propoxy]-ethoxyl}-phenyl)-propionic acid [Example 122]	500 nM		Ki (hPPARgamma; read-out: PPARg Ki): 625 nM
